A word on the IC50: it is the concentration at which inhibition is half-maximal.

Where two headings read alike, the source gives them in different places. Some results are limits rather than exact numbers.

This note sets out measurements from patent US20240140953A1, “INHIBITORS OF MENIN-MLL INTERACTION” (BIOMEA FUSION, INC., priority 2018, published 2024).

The subject of one assay is MV4-11 (MLL-AF4). In words: LTP assay, CellTiterGlo, T4-T14 (Example 103), MV4-11. Type of assay: cell-based, human. Particulars: for IC50: Homo sapiens. Here is the method:
(§1) The day of the experiment (T0) all the cell line suspensions were counted by Cell Viability Analyser, Vi-CELL and properly diluted with fresh medium to obtain the cell density reported in the Test System paragraph.
(§2) Cells were tested after 4 passages after thawing.
(§3) 200 μL/well and 150 μL/well of cell suspension were added into the 0.4 μL/well and 0.3 μL/well compound plates, respectively. • Cell plate containing 200 μL/well suspension was incubated at 37° C. in a humidified incubator with 5% CO2. • From each well of the 150 μL/well cell assay plate, 100 μL were harvested and transferred into a 96-well Optiplate (Perkin Elmer, Cat. n. 6005290) and cell viability was measured as described in 4.3 paragraphs (T0).
(§4) After four days in culture (T4) 150 μL/well of fresh medium were added into a new 0.3 μL/well copy compound plate. • From each well of the 200 μL/well cell assay plate: • 100 μL were sampled for the cell viability measurement as described in 4.3 paragraphs (T4). • 50 μL were harvested and added to the 150 μL/well compound plate prepared as described in the first point to dilute 1:4 the cell suspension. • The cell assay plate diluted and containing 200 μL/well suspension were incubated at 37° C. in a humidified incubator with 5% Co2.
(§5) At T7-T11-T14 it was proceeded as described in T4, with the exception that no further cell dilution was carried out at T14.
(§6) Plates containing the samples to be tested were equilibrated at room temperature for approximately 30 min and then 30 μL/well of the Promega CellTiterGlo® reagent were added.
(§7) Contents will be mixed for 5 min on an orbital shaker to induce cell lysis and then incubated at room temperature for an additional 10 min to stabilize the luminescent signal.
(§8) Luminescence was read by using VictorV (Perkin Elmer) multilabel plate reader using the standard protocol for luminescence in 96 well plate.
(§9) Data were expressed as % of inhibition compared to the 0.2% DMSO negative control, and was calculated as follows: […]
(§10) CRCs were analysed by GraphPad and IC50 values were calculated by non-linear regression using 4 parameter-logistic equation. IC50 (μM) values were reported in the final data table.
(§11) The curve fittings were performed leaving free all the parameters. Any constrain were reported in the results table.
On the technique in general: ATP-based viability assays read luminescence as a measure of living cells.

The subject of a further assay is RS4-11 (MLL-AF4). Nature of the assay: LTP assay, CellTiterGlo, T4-T14 (Example 103), RS4-11. Particulars: for IC50: Homo sapiens. Type of assay: cell-based. Here is the method: as §1, §2, §3, §4, §5, §6, §7, §8, §9, §10, §11
Another assay has as its system HL-60. Nature of the assay: LTP assay, CellTiterGlo, T4-T14 (Example 103), HL-60. The class given is cell-based. The procedure: as §1, §2, §3, §4, §5, §6, §7, §8, §9, §10, §11
Another assay relates to MOLM-13 (MLL-AF9). In words: LTP assay, CellTiterGlo, T4-T14 (Example 103), MOLM-13. The class given is cell-based, human. To be noted: for IC50: Homo sapiens. The procedure: as §1, §2, §3, §4, §5, §6, §7, §8, §9, §10, §11
Setting [1] is: MV4-11, 96 h, MV4-11 (MLL-AF4), T4 (Day 4), read-out: IC50 T4 (Day 4).
[2] abbreviates: MV4-11, MV4-11 (MLL-AF4), T7, read-out: IC50 T7.
Setting [3] is: MV4-11, MV4-11 (MLL-AF4), T11, read-out: IC50 T11.
The mark [4] stands for this setting: MV4-11, MV4-11 (MLL-AF4), T14, read-out: IC50 T14.
Setting [5] is: RS4-11, 96 h, RS4-11 (MLL-AF4), T4 (Day 4), read-out: IC50 T4 (Day 4).
Where [6] appears, read: RS4-11, RS4-11 (MLL-AF4), T7, read-out: IC50 T7.
Where [7] appears, read: RS4-11, RS4-11 (MLL-AF4), T11, read-out: IC50 T11.
[8] abbreviates: Homo sapiens, HL-60, 96 h, HL-60, T4 (Day 4), read-out: IC50 T4 (Day 4).
Where [9] appears, read: Homo sapiens, HL-60, HL-60, T7, read-out: IC50 T7.
The mark [10] stands for this setting: Homo sapiens, HL-60, HL-60, T11, read-out: IC50 T11.
Where [11] appears, read: Homo sapiens, HL-60, HL-60, T14, read-out: IC50 T14.
Where [12] appears, read: MOLM-13, 96 h, MOLM-13 (MLL-AF9), T4 (Day 4), read-out: IC50 T4 (Day 4).
Setting [13] is: MOLM-13, MOLM-13 (MLL-AF9), T7, read-out: IC50 T7.
Where [14] appears, read: MOLM-13, MOLM-13 (MLL-AF9), T11, read-out: IC50 T11.
The mark [15] stands for this setting: MOLM-13, MOLM-13 (MLL-AF9), T14, read-out: IC50 T14.

For `O=C(Nc1ccc(-c2nc3c(N4CCOCC4)nccc3[nH]2)cc1)Nc1cc(-c2cccnc2)n[nH]1` [Compound 19, 1-{4-[4-(morpholin-4-yl)-1H-imidazo[4,5-c]pyridin-2-yl]phenyl}-3-[3-(pyridin-3-yl)-1Hpyrazol-5-yl]urea], the IC50 with MV4-11 (MLL-AF4) (setting [1]) was determined as 1.29 µM; in the assay with MV4-11 (MLL-AF4) (setting [2]), 1.41 µM; in the assay with MV4-11 (MLL-AF4) (setting [3]), 0.05 µM; in the assay on MV4-11 (MLL-AF4) (setting [4]), 0.08 µM; in the assay with RS4-11 (MLL-AF4) (setting [5]), 1.62 µM; in the assay with RS4-11 (MLL-AF4) (setting [6]) it was 1.55 µM. Moreover, the IC50 in the assay with RS4-11 (MLL-AF4) (setting [7]) was more than 5 µM; in the assay with HL-60 (HL-60, T7, read-out: IC50 T7), 0.871 µM; in the assay with HL-60 (setting [8]), 1.55 µM; with HL-60 (setting [9]), 0.87 µM; with HL-60 (setting [10]), 0.65 µM; with HL-60 (setting [11]), 0.59 µM. Moreover, the IC50 with MOLM-13 (MLL-AF9) (setting [12]) worked out at 0.83 µM; in the assay with MOLM-13 (MLL-AF9) (setting [13]), 0.74 µM; with MOLM-13 (MLL-AF9) (setting [14]), 0.78 µM; in the assay on MOLM-13 (MLL-AF9) (setting [15]), 1.32 µM. For the same molecule, the “inhibition of cell viability (in words)” value with MV4-11 (MLL-AF4) (MV4-11, LTP assay) is listed as “fully inhibits the cell viability”; with RS4-11 (MLL-AF4) (RS4;11, LTP assay) it was “fully inhibits the cell viability”; in the assay on HL-60 (HL-60, LTP assay), “fully inhibits the cell viability”; in the assay with MOLM-13 (MLL-AF9) (MOLM-13, LTP assay), “fully inhibits the cell viability”.

As to `Cc1cn(-c2nccc3[nH]c(-c4ccc(NC(=O)Cc5cc(-c6cccnc6)n[nH]5)cc4)nc23)cn1` [Compound 31, N-[4-[4-(4-methylimidazol-1-yl)-1H-imidazo[4,5-c]pyridin-2-yl]phenyl]-2-(3-pyridin-3-yl-1H-pyrazol-5-yl)acetamide], the IC50 with MV4-11 (MLL-AF4) (setting [1]) was more than 5 µM; in the assay with MV4-11 (MLL-AF4) (setting [2]) it was more than 5 µM; with MV4-11 (MLL-AF4) (setting [3]), 2.63 µM; in the assay with MV4-11 (MLL-AF4) (setting [4]), 2.19 µM; with RS4-11 (MLL-AF4) (setting [5]), more than 5 µM; with RS4-11 (MLL-AF4) (setting [6]), 1.35 µM. Further, the IC50 in the assay on RS4-11 (MLL-AF4) (setting [7]), in the assay on HL-60 (setting [8]), in the assay on HL-60 (setting [9]), with HL-60 (setting [10]), in the assay with HL-60 (setting [11]) and in the assay on MOLM-13 (MLL-AF9) (setting [12]) was more than 5 µM in each case. The IC50 in the assay on MOLM-13 (MLL-AF9) (setting [13]), in the assay with MOLM-13 (MLL-AF9) (setting [14]) and with MOLM-13 (MLL-AF9) (setting [15]) was more than 5 µM throughout.

Take `Cc1nccc2[nH]c(-c3ccc(NC(=O)Cc4cc(-c5cccnc5)n[nH]4)cc3)nc12` [Compound 33]: the IC50 is more than 5 µM in the assay with MV4-11 (MLL-AF4) (setting [1]); more than 5 µM in the assay with MV4-11 (MLL-AF4) (setting [2]); 3.31 µM in the assay with MV4-11 (MLL-AF4) (setting [3]); 2.34 µM in the assay on MV4-11 (MLL-AF4) (setting [4]); more than 5 µM in the assay with RS4-11 (MLL-AF4) (setting [5]); more than 5 µM with RS4-11 (MLL-AF4) (setting [6]). Also, the IC50 in the assay with RS4-11 (MLL-AF4) (setting [7]), in the assay with HL-60 (setting [8]), with HL-60 (setting [9]), with HL-60 (setting [10]), in the assay with HL-60 (setting [11]) and in the assay on MOLM-13 (MLL-AF9) (setting [12]) was more than 5 µM throughout. Further, the IC50 in the assay on MOLM-13 (MLL-AF9) (setting [13]), in the assay on MOLM-13 (MLL-AF9) (setting [14]) and in the assay with MOLM-13 (MLL-AF9) (setting [15]) was more than 5 µM in each case.

`Cc1ccc(-c2cc(CC(=O)Nc3ccc(-c4nc5c(N6CCOCC6)nccc5[nH]4)cc3)[nH]n2)cn1` [Compound 32]: the IC50 was more than 5 µM in the assay on MV4-11 (MLL-AF4) (setting [1]); 4.91 µM in the assay on MV4-11 (MLL-AF4) (setting [2]); 3.09 µM in the assay with MV4-11 (MLL-AF4) (setting [3]); 2.69 µM in the assay with MV4-11 (MLL-AF4) (setting [4]); more than 5 µM with RS4-11 (MLL-AF4) (setting [5]); 2.75 µM with RS4-11 (MLL-AF4) (setting [6]). Further, the IC50 in the assay on RS4-11 (MLL-AF4) (setting [7]), with HL-60 (setting [8]), in the assay with HL-60 (setting [9]), with HL-60 (setting [10]), in the assay with HL-60 (setting [11]) and in the assay with MOLM-13 (MLL-AF9) (setting [12]) was more than 5 µM each time. The IC50 in the assay with MOLM-13 (MLL-AF9) (setting [13]), in the assay with MOLM-13 (MLL-AF9) (setting [14]) and with MOLM-13 (MLL-AF9) (setting [15]) was more than 5 µM in each case.
